Earlier results, collected in patent US7622592B2, “Carbonylamino-benzimidazole derivatives as androgen receptor modulators” (Merck & Co., Inc., priority 2002, dated 2009).

Conditions: after 7 years of treatment

For NCCCC(O)(P(=O)(O)O)P(=O)(O)O [alendronate, 4-amino-1-hydroxybutylidene-1,1-bisphosphonic acid], the “increase in spinal BMD” value is listed as 11.
